In PMC8185074, “Anchor extension: a structure-guided approach to design cyclic peptides targeting enzyme active sites” (Nature Communications, 2021):
Peptide text beside a SMILES is read from it.

Assays:
Type in all cases: biochemical
HDAC2 [1] = target: T1, HDAC2 (Homo sapiens, UniProt Q92769); test: HDAC2 inhibition, full IC50 measurement (Reaction Biology; fluorogenic p53 peptide RHKK(Ac)AMC)
T1 construct: purchased Reaction Biology Corporation (assay run by the CRO)
Outline: (§1)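 Inhibitory peptides were acoustically dispensed with enzyme, then substrate added; 1 h at 30 °C. Developer stopped reaction; plateau endpoint fluorescence (360/460 nm) gave IC50.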

HDAC1 = target: T2, HDAC1 (Homo sapiens, UniProt Q13547); test: HDAC1 inhibition, full IC50 measurement (Reaction Biology; fluorogenic p53 peptide RHKK(Ac)AMC); conditions: t1/t2 replicates
T2 construct: purchased Reaction Biology Corporation (assay run by the CRO)
T2 sequence (Q13547 whole entry): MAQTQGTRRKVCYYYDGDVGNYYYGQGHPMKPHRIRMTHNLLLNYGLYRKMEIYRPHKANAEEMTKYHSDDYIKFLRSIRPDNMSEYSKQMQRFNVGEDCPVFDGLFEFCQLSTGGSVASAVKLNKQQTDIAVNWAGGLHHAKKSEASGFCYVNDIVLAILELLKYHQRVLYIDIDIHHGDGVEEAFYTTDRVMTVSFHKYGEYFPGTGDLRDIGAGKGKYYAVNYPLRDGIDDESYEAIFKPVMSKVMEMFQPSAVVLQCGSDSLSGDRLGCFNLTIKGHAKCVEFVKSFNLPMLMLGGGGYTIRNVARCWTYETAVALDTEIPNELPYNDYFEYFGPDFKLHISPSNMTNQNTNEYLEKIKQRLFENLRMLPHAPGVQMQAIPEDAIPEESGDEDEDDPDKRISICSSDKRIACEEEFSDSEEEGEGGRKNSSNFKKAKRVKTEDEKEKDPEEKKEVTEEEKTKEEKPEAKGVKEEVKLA
Outline: as §1

HDAC2 [2] = target: T1, HDAC2; test: Initial HDAC2 IC50 estimate (BPS Biosciences HDAC fluorogenic assay kit); conditions: Supplementary Dataset 2; read-out: HDAC2 activity (initial activity)
Outline: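 Inhibition measured by kit-based fluorogenic HDAC activity assays, with each point in duplicate or triplicate. Values come from a full 1 µM–100 pM series (1:10 steps) or are range estimates from just 20 nM and 200 nM.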

HDAC8 = target: T3, HDAC8 (Homo sapiens, UniProt Q9BY41); test: HDAC8 inhibition, full IC50 measurement (Reaction Biology; fluorogenic p53 peptide RHKK(Ac)AMC); conditions: t1/t2 replicates
T3 construct: purchased Reaction Biology Corporation (assay run by the CRO)
T3 sequence (Q9BY41 1-377): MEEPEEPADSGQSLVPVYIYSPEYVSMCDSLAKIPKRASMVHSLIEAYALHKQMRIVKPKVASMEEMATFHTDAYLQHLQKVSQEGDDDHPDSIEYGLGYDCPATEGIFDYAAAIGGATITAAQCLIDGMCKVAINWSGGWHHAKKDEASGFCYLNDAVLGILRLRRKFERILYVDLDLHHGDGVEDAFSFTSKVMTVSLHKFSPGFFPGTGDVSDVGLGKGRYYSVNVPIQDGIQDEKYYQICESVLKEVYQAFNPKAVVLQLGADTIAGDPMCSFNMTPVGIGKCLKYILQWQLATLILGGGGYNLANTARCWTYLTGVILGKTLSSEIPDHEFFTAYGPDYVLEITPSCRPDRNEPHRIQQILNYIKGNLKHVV
Outline: as §1

[3] = peptide conc. 1.00E-05 M, listed as des4.3.1_t1
[4] = peptide conc. 1.00E-05 M, listed as des4.3.1_t2
[5] = peptide conc. 1.11E-06 M, listed as des4.3.1_t1
[6] = peptide conc. 1.11E-06 M, listed as des4.3.1_t2
[7] = peptide conc. 1.23E-07 M, listed as des4.3.1_t1
[8] = peptide conc. 1.23E-07 M, listed as des4.3.1_t2
[9] = peptide conc. 1.37E-08 M, listed as des4.3.1_t1
[10] = peptide conc. 1.37E-08 M, listed as des4.3.1_t2
[11] = peptide conc. 1.52E-09 M, listed as des4.3.1_t1
[12] = peptide conc. 1.52E-09 M, listed as des4.3.1_t2
[13] = peptide conc. 3.33E-06 M, listed as des4.3.1_t1
[14] = peptide conc. 3.33E-06 M, listed as des4.3.1_t2
[15] = peptide conc. 3.70E-07 M, listed as des4.3.1_t1
[16] = peptide conc. 3.70E-07 M, listed as des4.3.1_t2
[17] = peptide conc. 4.12E-08 M, listed as des4.3.1_t1
[18] = peptide conc. 4.12E-08 M, listed as des4.3.1_t2
[19] = peptide conc. 4.57E-09 M, listed as des4.3.1_t1
[20] = peptide conc. 4.57E-09 M, listed as des4.3.1_t2
[21] = peptide conc. 5.08E-10 M, listed as des4.3.1_t1
[22] = peptide conc. 5.08E-10 M, listed as des4.3.1_t2

T1 sequence (Q92769 whole entry): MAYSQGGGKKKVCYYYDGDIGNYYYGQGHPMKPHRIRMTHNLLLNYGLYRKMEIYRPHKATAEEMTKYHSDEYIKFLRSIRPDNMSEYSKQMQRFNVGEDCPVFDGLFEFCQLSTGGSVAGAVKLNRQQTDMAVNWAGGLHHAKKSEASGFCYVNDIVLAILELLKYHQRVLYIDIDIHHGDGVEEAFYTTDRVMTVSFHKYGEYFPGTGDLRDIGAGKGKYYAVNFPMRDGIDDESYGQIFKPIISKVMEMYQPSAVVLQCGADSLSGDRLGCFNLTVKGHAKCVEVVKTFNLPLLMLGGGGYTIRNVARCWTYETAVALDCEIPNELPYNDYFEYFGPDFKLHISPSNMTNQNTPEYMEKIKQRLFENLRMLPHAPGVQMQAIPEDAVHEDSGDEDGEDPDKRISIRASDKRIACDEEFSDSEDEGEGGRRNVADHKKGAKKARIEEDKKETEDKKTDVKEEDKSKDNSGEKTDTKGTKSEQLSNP

CCCC[C@H]1NC(=O)[C@H](Cc2ccccc2)NC(=O)[C@H](CCCCCS)NC(=O)[C@@H](CCCNC(=N)N)NC(=O)[C@H](CC(=O)O)NC(=O)[C@@H](CO)NC(=O)[C@@H](C)NC(=O)[C@H](CCCCN)NC1=O [des4.3.1, SHA-Phe-dNle-Lys-dAla-dSer-Asp-dArg] (HELM PEPTIDE1{D.[dR].[O=C([C@H](CCCCCS)N[*:1])[*:2]].F.[CCCC[C@@H](N[*:1])C(=O)[*:2]].K.[dA].[dS]}$PEPTIDE1,PEPTIDE1,1:R1-8:R2$$$V2.0)
HDAC2 activity raw data (signal) (HDAC2 [1]; Conc. 1.00E-05 M, t1): 97979 | HDAC2 activity raw data (signal) (HDAC2 [1]; Conc. 1.00E-05 M, t2): 118920 | HDAC2 activity raw data (signal) (HDAC2 [1]; Conc. 1.11E-06 M, t1): 710265 | HDAC2 activity raw data (signal) (HDAC2 [1]; Conc. 1.11E-06 M, t2): 678505 | HDAC2 activity raw data (signal) (HDAC2 [1]; Conc. 1.23E-07 M, t1): 1050894 | HDAC2 activity raw data (signal) (HDAC2 [1]; Conc. 1.23E-07 M, t2): 1073616 | HDAC2 activity raw data (signal) (HDAC2 [1]; Conc. 1.37E-08 M, t1): 1089277 | HDAC2 activity raw data (signal) (HDAC2 [1]; Conc. 1.37E-08 M, t2): 1188700 | HDAC2 activity raw data (signal) (HDAC2 [1]; Conc. 1.52E-09 M, t1): 1283576 | HDAC2 activity raw data (signal) (HDAC2 [1]; Conc. 1.52E-09 M, t2): 1146756 | HDAC2 activity raw data (signal) (HDAC2 [1]; Conc. 3.33E-06 M, t1): 321418 | HDAC2 activity raw data (signal) (HDAC2 [1]; Conc. 3.33E-06 M, t2): 369190 | HDAC2 activity raw data (signal) (HDAC2 [1]; Conc. 3.70E-07 M, t1): 905304 | HDAC2 activity raw data (signal) (HDAC2 [1]; Conc. 3.70E-07 M, t2): 972905 | HDAC2 activity raw data (signal) (HDAC2 [1]; Conc. 4.12E-08 M, t1): 1002980 | HDAC2 activity raw data (signal) (HDAC2 [1]; Conc. 4.12E-08 M, t2): 1204296 | HDAC2 activity raw data (signal) (HDAC2 [1]; Conc. 4.57E-09 M, t1): 1158146 | HDAC2 activity raw data (signal) (HDAC2 [1]; Conc. 4.57E-09 M, t2): 1127910 | HDAC2 activity raw data (signal) (HDAC2 [1]; Conc. 5.08E-10 M, t1): 1185807 | HDAC2 activity raw data (signal) (HDAC2 [1]; Conc. 5.08E-10 M, t2): 1137899 | IC50 (HDAC2 [1]; unit printed only in the axis title, read-out: HDAC2 IC50 (printed in dose-response picture)): 1500 nM | HDAC1 activity raw data (signal) (HDAC1; [3]): 61312 | HDAC1 activity raw data (signal) (HDAC1; [4]): 56616 | HDAC1 activity raw data (signal) (HDAC1; [5]): 524367 | HDAC1 activity raw data (signal) (HDAC1; [6]): 474109 | HDAC1 activity raw data (signal) (HDAC1; [7]): 1051662 | HDAC1 activity raw data (signal) (HDAC1; [8]): 1036587 | HDAC1 activity raw data (signal) (HDAC1; [9]): 1215949 | HDAC1 activity raw data (signal) (HDAC1; [10]): 1295956 | HDAC1 activity raw data (signal) (HDAC1; [11]): 1351214 | HDAC1 activity raw data (signal) (HDAC1; [12]): 1240672 | HDAC1 activity raw data (signal) (HDAC1; [13]): 212161 | HDAC1 activity raw data (signal) (HDAC1; [14]): 198550 | HDAC1 activity raw data (signal) (HDAC1; [15]): 878996 | HDAC1 activity raw data (signal) (HDAC1; [16]): 808933 | HDAC1 activity raw data (signal) (HDAC1; [17]): 1147207 | HDAC1 activity raw data (signal) (HDAC1; [18]): 1235202 | HDAC1 activity raw data (signal) (HDAC1; [19]): 1224928 | HDAC1 activity raw data (signal) (HDAC1; [20]): 1148569 | HDAC1 activity raw data (signal) (HDAC1; [21]): 1219331 | HDAC1 activity raw data (signal) (HDAC1; [22]): 1171745 | IC50 (HDAC2 [2]): 350 nM | HDAC8 activity raw data (signal) (HDAC8; [3]): -1078311 | HDAC8 activity raw data (signal) (HDAC8; [4]): -204031 | HDAC8 activity raw data (signal) (HDAC8; [5]): 952629 | HDAC8 activity raw data (signal) (HDAC8; [6]): 3749954 | HDAC8 activity raw data (signal) (HDAC8; [7]): 24845816 | HDAC8 activity raw data (signal) (HDAC8; [8]): 32510062 | HDAC8 activity raw data (signal) (HDAC8; [9]): 71732810 | HDAC8 activity raw data (signal) (HDAC8; [10]): 73842492 | HDAC8 activity raw data (signal) (HDAC8; [11]): 70954745 | HDAC8 activity raw data (signal) (HDAC8; [12]): 80270259 | HDAC8 activity raw data (signal) (HDAC8; [13]): 928811 | HDAC8 activity raw data (signal) (HDAC8; [14]): 1732618 | HDAC8 activity raw data (signal) (HDAC8; [15]): 8410528 | HDAC8 activity raw data (signal) (HDAC8; [16]): 10886213 | HDAC8 activity raw data (signal) (HDAC8; [17]): 59468141 | HDAC8 activity raw data (signal) (HDAC8; [18]): 56999449 | HDAC8 activity raw data (signal) (HDAC8; [19]): 79326596 | HDAC8 activity raw data (signal) (HDAC8; [20]): 78170432 | HDAC8 activity raw data (signal) (HDAC8; [21]): 81559751 | HDAC8 activity raw data (signal) (HDAC8; [22]): 84202880
